In brackets after ≈: the same amount, converted by molar mass.
Assays:
Type in all cases: functional
Escherichia coli [1] = assay: Antibacterial activity against Escherichia coli MTCC 1573 at 1000 ug/ml after 48 hr by cup-plate method; details: MTCC 1573, 48 h, read-out: DIZ
Pseudomonas fluorescens [2] = assay: Antibacterial activity against Pseudomonas fluorescens MTCC 2421 after 24 to 48 hr by tube dilution method
Pseudomonas fluorescens [3] = assay: Antibacterial activity against Pseudomonas fluorescens MTCC 2421 at 500 ug/ml after 48 hr by cup-plate method; details: MTCC 2421, 48 h, read-out: DIZ
Bacillus pumilus [4] = assay: Antibacterial activity against Bacillus pumilus MTCC 1456 at 750 ug/ml after 48 hr by cup-plate method; details: MTCC 1456, 48 h, read-out: DIZ
Pseudomonas fluorescens [5] = assay: Antibacterial activity against Pseudomonas fluorescens MTCC 2421 at 100 ug/ml after 48 hr by cup-plate method; details: MTCC 2421, 48 h, read-out: DIZ
Bacillus subtilis [6] = assay: Antibacterial activity against Bacillus subtilis MTCC 441 at 100 ug/ml after 48 hr by cup-plate method; details: MTCC 441, 48 h, read-out: DIZ
Escherichia coli [7] = assay: Antibacterial activity against Escherichia coli MTCC 1573 at 100 ug/ml after 48 hr by cup-plate method; details: MTCC 1573, 48 h, read-out: DIZ
Penicillium chrysogenum [8] = assay: Antifungal activity against Penicillium chrysogenum MTCC 161 at 500 ug/ml after 48 hr by cup-plate method; details: MTCC 161, 48 h, read-out: DIZ
Penicillium chrysogenum [9] = assay: Antifungal activity against Penicillium chrysogenum MTCC 161 at 1250 ug/ml after 48 hr by cup-plate method; details: MTCC 161, 48 h, read-out: DIZ
Bacillus pumilus [10] = assay: Antibacterial activity against Bacillus pumilus MTCC 1456 at 100 ug/ml after 48 hr by cup-plate method; details: MTCC 1456, 48 h, read-out: DIZ
Pseudomonas aeruginosa [11] = assay: Antibacterial activity against Pseudomonas aeruginosa MTCC 424 after 24 to 48 hr by tube dilution method
Pseudomonas fluorescens [12] = assay: Antibacterial activity against Pseudomonas fluorescens MTCC 2421 at 1250 ug/ml after 48 hr by cup-plate method; details: MTCC 2421, 48 h, read-out: DIZ
Escherichia coli [13] = assay: Antibacterial activity against Escherichia coli MTCC 1573 at 250 ug/ml after 48 hr by cup-plate method; details: MTCC 1573, 48 h, read-out: DIZ
Escherichia coli [14] = assay: Antibacterial activity against Escherichia coli MTCC 1573 at 750 ug/ml after 48 hr by cup-plate method; details: MTCC 1573, 48 h, read-out: DIZ
Escherichia coli [15] = assay: Antibacterial activity against Escherichia coli MTCC 1573 at 1250 ug/ml after 48 hr by cup-plate method; details: MTCC 1573, 48 h, read-out: DIZ
Bacillus subtilis [16] = assay: Antibacterial activity against Bacillus subtilis MTCC 441 at 1250 ug/ml after 48 hr by cup-plate method; details: MTCC 441, 48 h, read-out: DIZ
Aspergillus niger [17] = assay: Antifungal activity against Aspergillus niger MTCC 2546 at 1250 ug/ml after 48 hr by cup-plate method; details: MTCC 2546, 48 h, read-out: DIZ
Staphylococcus aureus [18] = assay: Antibacterial activity against Staphylococcus aureus MTCC 1430 at 500 ug/ml after 48 hr by cup-plate method; details: MTCC 1430, 48 h, read-out: DIZ
Staphylococcus aureus [19] = assay: Antibacterial activity against Staphylococcus aureus MTCC 1430 after 24 to 48 hr by tube dilution method
Pseudomonas aeruginosa [20] = assay: Antibacterial activity against Pseudomonas aeruginosa MTCC 424 at 750 ug/ml after 48 hr by cup-plate method; details: MTCC 424, 48 h, read-out: DIZ
Bacillus subtilis [21] = assay: Antibacterial activity against Bacillus subtilis MTCC 441 after 24 to 48 hr by tube dilution method
Pseudomonas aeruginosa [22] = assay: Antibacterial activity against Pseudomonas aeruginosa MTCC 424 at 1000 ug/ml after 48 hr by cup-plate method; details: MTCC 424, 48 h, read-out: DIZ
Staphylococcus aureus [23] = assay: Antibacterial activity against Staphylococcus aureus MTCC 1430 at 1000 ug/ml after 48 hr by cup-plate method; details: MTCC 1430, 48 h, read-out: DIZ
Pseudomonas aeruginosa [24] = assay: Antibacterial activity against Pseudomonas aeruginosa MTCC 424 at 1250 ug/ml after 48 hr by cup-plate method; details: MTCC 424, 48 h, read-out: DIZ
Pseudomonas fluorescens [25] = assay: Antibacterial activity against Pseudomonas fluorescens MTCC 2421 at 250 ug/ml after 48 hr by cup-plate method; details: MTCC 2421, 48 h, read-out: DIZ
Bacillus pumilus [26] = assay: Antibacterial activity against Bacillus pumilus MTCC 1456 at 500 ug/ml after 48 hr by cup-plate method; details: MTCC 1456, 48 h, read-out: DIZ
Penicillium chrysogenum [27] = assay: Antifungal activity against Penicillium chrysogenum MTCC 161 after 24 to 48 hr by tube dilution method
Penicillium chrysogenum [28] = assay: Antifungal activity against Penicillium chrysogenum MTCC 161 at 1000 ug/ml after 48 hr by cup-plate method; details: MTCC 161, 48 h, read-out: DIZ
Pseudomonas fluorescens [29] = assay: Antibacterial activity against Pseudomonas fluorescens MTCC 2421 at 1000 ug/ml after 48 hr by cup-plate method; details: MTCC 2421, 48 h, read-out: DIZ
Penicillium chrysogenum [30] = assay: Antifungal activity against Penicillium chrysogenum MTCC 161 at 250 ug/ml after 48 hr by cup-plate method; details: MTCC 161, 48 h, read-out: DIZ
Escherichia coli [31] = assay: Antibacterial activity against Escherichia coli MTCC 1573 at 500 ug/ml after 48 hr by cup-plate method; details: MTCC 1573, 48 h, read-out: DIZ
Bacillus subtilis [32] = assay: Antibacterial activity against Bacillus subtilis MTCC 441 at 750 ug/ml after 48 hr by cup-plate method; details: MTCC 441, 48 h, read-out: DIZ
Bacillus subtilis [33] = assay: Antibacterial activity against Bacillus subtilis MTCC 441 at 1000 ug/ml after 48 hr by cup-plate method; details: MTCC 441, 48 h, read-out: DIZ
Micrococcus luteus [34] = assay: Antibacterial activity against Micrococcus luteus MTCC 1538 at 1000 ug/ml after 48 hr by cup-plate method; details: MTCC 1538, 48 h, read-out: DIZ
Micrococcus luteus [35] = assay: Antibacterial activity against Micrococcus luteus MTCC 1538 at 500 ug/ml after 48 hr by cup-plate method; details: MTCC 1538, 48 h, read-out: DIZ
Bacillus pumilus [36] = assay: Antibacterial activity against Bacillus pumilus MTCC 1456 at 250 ug/ml after 48 hr by cup-plate method; details: MTCC 1456, 48 h, read-out: DIZ
Micrococcus luteus [37] = assay: Antibacterial activity against Micrococcus luteus MTCC 1538 at 250 ug/ml after 48 hr by cup-plate method; details: MTCC 1538, 48 h, read-out: DIZ
Micrococcus luteus [38] = assay: Antibacterial activity against Micrococcus luteus MTCC 1538 at 750 ug/ml after 48 hr by cup-plate method; details: MTCC 1538, 48 h, read-out: DIZ
Aspergillus niger [39] = assay: Antifungal activity against Aspergillus niger MTCC 2546 at 100 ug/ml after 48 hr by cup-plate method; details: MTCC 2546, 48 h, read-out: DIZ
Pseudomonas fluorescens [40] = assay: Antibacterial activity against Pseudomonas fluorescens MTCC 2421 at 750 ug/ml after 48 hr by cup-plate method; details: MTCC 2421, 48 h, read-out: DIZ
Aspergillus niger [41] = assay: Antifungal activity against Aspergillus niger MTCC 2546 after 24 to 48 hr by tube dilution method
Aspergillus niger [42] = assay: Antifungal activity against Aspergillus niger MTCC 2546 at 1000 ug/ml after 48 hr by cup-plate method; details: MTCC 2546, 48 h, read-out: DIZ
Micrococcus luteus [43] = assay: Antibacterial activity against Micrococcus luteus MTCC 1538 at 1250 ug/ml after 48 hr by cup-plate method; details: MTCC 1538, 48 h, read-out: DIZ
Penicillium chrysogenum [44] = assay: Antifungal activity against Penicillium chrysogenum MTCC 161 at 100 ug/ml after 48 hr by cup-plate method; details: MTCC 161, 48 h, read-out: DIZ
Bacillus pumilus [45] = assay: Antibacterial activity against Bacillus pumilus MTCC 1456 after 24 to 48 hr by tube dilution method

O=[N+]([O-])c1ccc(C2CC(c3cccc4ccccc34)=NN2c2ccccc2[N+](=O)[O-])cc1 (stereo not given)
zone of inhibition at 1000 µg/mL (Escherichia coli [1]): 17 mm | MIC (Pseudomonas fluorescens [2]): 30 µg/mL (≈ 68.4 µM) | zone of inhibition at 500 µg/mL (Pseudomonas fluorescens [3]): 13 mm | zone of inhibition at 750 µg/mL (Bacillus pumilus [4]): 18 mm | zone of inhibition at 100 µg/mL (Pseudomonas fluorescens [5]): 10 mm | zone of inhibition at 100 µg/mL (Bacillus subtilis [6]): 12 mm | zone of inhibition at 100 µg/mL (Escherichia coli [7]): 9 mm | zone of inhibition at 500 µg/mL (Penicillium chrysogenum [8]): 15 mm | zone of inhibition at 1250 µg/mL (Penicillium chrysogenum [9]): 26 mm | zone of inhibition at 100 µg/mL (Bacillus pumilus [10]): 10 mm | MIC (Pseudomonas aeruginosa [11]): 150 µg/mL (≈ 342 µM) | zone of inhibition at 1250 µg/mL (Pseudomonas fluorescens [12]): 24 mm | zone of inhibition at 250 µg/mL (Escherichia coli [13]): 10 mm | zone of inhibition at 750 µg/mL (Escherichia coli [14]): 13 mm | zone of inhibition at 1250 µg/mL (Escherichia coli [15]): 20 mm | zone of inhibition at 1250 µg/mL (Bacillus subtilis [16]): 17 mm | zone of inhibition at 1250 µg/mL (Aspergillus niger [17]): 25 mm | zone of inhibition at 500 µg/mL (Staphylococcus aureus [18]): 10 mm | MIC (Staphylococcus aureus [19]): 50 µg/mL (≈ 114 µM) | zone of inhibition at 750 µg/mL (Pseudomonas aeruginosa [20]): 16 mm | MIC (Bacillus subtilis [21]): 19 µg/mL (≈ 43.3 µM) | zone of inhibition at 1000 µg/mL (Pseudomonas aeruginosa [22]): 17 mm | zone of inhibition at 1000 µg/mL (Staphylococcus aureus [23]): 13 mm | zone of inhibition at 1250 µg/mL (Pseudomonas aeruginosa [24]): 18 mm | zone of inhibition at 250 µg/mL (Pseudomonas fluorescens [25]): 11 mm | zone of inhibition at 500 µg/mL (Bacillus pumilus [26]): 12 mm | MIC (Penicillium chrysogenum [27]): 30 µg/mL (≈ 68.4 µM) | zone of inhibition at 1000 µg/mL (Penicillium chrysogenum [28]): 24 mm | zone of inhibition at 1000 µg/mL (Pseudomonas fluorescens [29]): 21 mm | zone of inhibition at 250 µg/mL (Penicillium chrysogenum [30]): 14 mm | zone of inhibition at 500 µg/mL (Escherichia coli [31]): 11 mm | zone of inhibition at 750 µg/mL (Bacillus subtilis [32]): 15 mm | zone of inhibition at 1000 µg/mL (Bacillus subtilis [33]): 16 mm | zone of inhibition at 1000 µg/mL (Micrococcus luteus [34]): 15 mm | zone of inhibition at 500 µg/mL (Micrococcus luteus [35]): 9 mm | zone of inhibition at 250 µg/mL (Bacillus pumilus [36]): 11 mm | zone of inhibition at 250 µg/mL (Micrococcus luteus [37]): 8 mm | zone of inhibition at 750 µg/mL (Micrococcus luteus [38]): 13 mm | zone of inhibition at 100 µg/mL (Aspergillus niger [39]): 10 mm | zone of inhibition at 750 µg/mL (Pseudomonas fluorescens [40]): 18 mm | MIC (Aspergillus niger [41]): 30 µg/mL (≈ 68.4 µM) | zone of inhibition at 1000 µg/mL (Aspergillus niger [42]): 23 mm | zone of inhibition at 1250 µg/mL (Micrococcus luteus [43]): 17 mm | zone of inhibition at 100 µg/mL (Penicillium chrysogenum [44]): 13 mm | MIC (Bacillus pumilus [45]): 30 µg/mL (≈ 68.4 µM)
